Tests used:
[1] = Inhibition of GST-tagged MEK1/ERK2 (unknown origin) cascading pathway assessed as reduction in ERK2 phosphorylation incubated for 2 hrs by HTRF assay relative to control; parameters: species or system Homo sapiens
[2] = biological target: Dual specificity mitogen-activated protein kinase kinase 1 (Homo sapiens) (UniProt Q02750); experiment: Inhibition of recombinant full length GST-tagged human MEK1 expressed in baculovirus infected sf9 insect cells at 20 uM measured after 30 to 90 mins by HTRF based Lanthascreen Eu kinase binding assay relative to AZD6244
[3] = biological target: Dual specificity mitogen-activated protein kinase kinase 1 (Homo sapiens) (UniProt Q02750); experiment: Inhibition of recombinant full length GST-tagged human MEK1 expressed in baculovirus infected sf9 insect cells at 2 uM measured after 30 to 90 mins by HTRF based Lanthascreen Eu kinase binding assay relative to AZD6244
[4] = tested on: Sf21; conditions: Homo sapiens, at 2 µM
Description: Inhibition of recombinant N-terminal GST-tagged human BRAF (433-726 residues) expressed in baculovirus infected sf21 insect cells/recombinant human full length N-terminal GST-tagged MEK1 expressed in Escherichia coli cascading pathway assessed as reduction in MEK1 phosphorylation at 2 uM incubated for 2 hrs by HTRF assay relative to control

[5] = species on record: Homo sapiens; conditions: at 20 µM
Description: Inhibition of GST-tagged MEK1/ERK2 (unknown origin) cascading pathway assessed as reduction in ERK2 phosphorylation at 20 uM incubated for 2 hrs by HTRF assay relative to control

[6] = species on record: Homo sapiens; conditions: at 2 µM
Description: Inhibition of GST-tagged MEK1/ERK2 (unknown origin) cascading pathway assessed as reduction in ERK2 phosphorylation at 2 uM incubated for 2 hrs by HTRF assay relative to control

[7] = tested on: Sf21; conditions: Homo sapiens, at 20 µM
Description: Inhibition of recombinant N-terminal GST-tagged human BRAF (433-726 residues) expressed in baculovirus infected sf21 insect cells/recombinant human full length N-terminal GST-tagged MEK1 expressed in Escherichia coli cascading pathway assessed as reduction in MEK1 phosphorylation at 20 uM incubated for 2 hrs by HTRF assay relative to control

[8] = tested on: HEK293; experiment: cells; assay type: ADME, cell-based; conditions: Homo sapiens, HEK293, 72 h
[9] = tested on: HL-60; experiment: cells; assay type: functional, cell-based; conditions: Homo sapiens, HL-60, 72 h
[10] = tested on: A-375; experiment: cells; assay type: functional, cell-based; conditions: Homo sapiens, A-375, 72 h
Description: Antiproliferative activity against human A375 cells assessed as cell viability incubated for 72 hrs by cell titer-glo luminescent cell viability assay (Rvb = > 100 uM)

[11] = tested on: A549; experiment: cells; assay type: functional, cell-based; conditions: Homo sapiens, A549, 72 h
[12] = Inhibition of BRAF/MEK1 (unknown origin) cascading pathway assessed as reduction in MEK1 phosphorylation incubated for 2 hrs in presence of 100 uM ATP by HTRF assay; parameters: species or system Homo sapiens
[13] = Inhibition of BRAF/MEK1 (unknown origin) cascading pathway assessed as reduction in MEK1 phosphorylation incubated for 2 hrs in presence of 300 uM ATP by HTRF assay; parameters: species or system Homo sapiens

Sequence of Dual specificity mitogen-activated protein kinase kinase 1 (Homo sapiens) (Q02750 whole entry): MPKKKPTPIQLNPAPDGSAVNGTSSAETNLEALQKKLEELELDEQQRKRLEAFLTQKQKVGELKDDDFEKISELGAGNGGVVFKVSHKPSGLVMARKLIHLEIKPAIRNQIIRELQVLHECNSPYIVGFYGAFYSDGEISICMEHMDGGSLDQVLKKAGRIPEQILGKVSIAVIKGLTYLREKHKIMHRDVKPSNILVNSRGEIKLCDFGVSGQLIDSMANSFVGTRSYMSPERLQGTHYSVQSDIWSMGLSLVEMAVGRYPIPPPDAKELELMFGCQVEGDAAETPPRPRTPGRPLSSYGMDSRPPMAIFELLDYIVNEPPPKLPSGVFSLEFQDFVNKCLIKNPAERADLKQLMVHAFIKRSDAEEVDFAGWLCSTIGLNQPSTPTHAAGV

COc1cc(/C=C2\C(=O)NN(c3ccc(I)cc3)C2=O)ccc1OC(C)=O
IC50 [1]: 63.1 µM | inhibition [2]: 60.1% | inhibition [3]: 11.9% | inhibition [4]: 6.3% | inhibition [5]: 35% | inhibition [6]: 5.1% | inhibition [7]: 57%

Cc1ccc(S(=O)(=O)Nc2cc(OCC(N)=O)cc3c2[nH]c2ccccc23)cc1
inhibition [5]: 27.9% | inhibition [7]: 41.9%

Cc1ccc(S(=O)(=O)Nc2cc(S(=O)(=O)CC(=O)O)cc3c2[nH]c2ccccc23)cc1
inhibition [5]: 35.5% | inhibition [7]: 45%

CC(=O)Nc1ccc(S(=O)(=O)Nc2cc(SCC(=O)O)cc3c2[nH]c2ccccc23)cc1
inhibition [5]: 27.7% | inhibition [7]: 44.2%

CCOC(=O)COc1cc(NS(=O)(=O)c2ccc(NC(C)=O)cc2)c2[nH]c3ccccc3c2c1
inhibition [5]: 18.2% | inhibition [7]: 27.4%

CC(=O)Nc1cccc(S(=O)(=O)Nc2cc(OCc3nnc(C)o3)cc3c2[nH]c2ccccc23)c1
inhibition [5]: -10% | inhibition [7]: 29.5%

CCOC(=O)CSc1cc(NS(=O)(=O)c2ccc(C)cc2)c2[nH]c3ccccc3c2c1
inhibition [5]: 39.2% | inhibition [7]: 45.2%

CCOC(=O)COc1cc(NS(=O)(=O)c2ccc(C)cc2)c2[nH]c3ccccc3c2c1
IC50 [8]: > 100 µM | IC50 [9]: > 100 µM | IC50 [10]: 70.7 µM | IC50 [11]: 70.7 µM | inhibition [5]: 28.9% | inhibition [7]: 56.6%

Cc1ccc(S(=O)(=O)Nc2cc(SCC(=O)O)c(O)c3ccccc23)cc1
IC50 [1]: > 160 µM | IC50 [8]: 8.9 µM | inhibition [2]: 90.3% | IC50 [9]: 17.2 µM | IC50 [10]: 7.7 µM | IC50 [11]: 21.6 µM | inhibition [3]: 32.1% | inhibition [4]: 4.4% | inhibition [5]: 32% | inhibition [6]: 3.9% | inhibition [7]: 56.1%

Cc1ccc(S(=O)(=O)Nc2cc(SCC(=O)O)cc3c2[nH]c2ccccc23)cc1
IC50 [8]: > 100 µM | IC50 [9]: > 100 µM | IC50 [10]: > 100 µM | IC50 [11]: > 100 µM | inhibition [5]: 21.4% | inhibition [7]: 67.2%

Cc1ccc(S(=O)(=O)Nc2cc(OCc3nc(C)no3)cc3c2[nH]c2ccccc23)cc1
inhibition [5]: 37.8% | inhibition [7]: 38.2%

Cc1ccc(S(=O)(=O)Nc2cc(OCC(=O)O)cc3c2[nH]c2ccccc23)cc1
IC50 [8]: > 100 µM | IC50 [9]: > 100 µM | IC50 [12]: 13.2 µM | IC50 [10]: > 100 µM | IC50 [11]: > 100 µM | IC50 [13]: 12.1 µM | inhibition [5]: 21.5% | inhibition [7]: 65.8%

Cc1ccc(S(=O)(=O)Nc2cc(OCc3nnc(N)o3)cc3c2[nH]c2ccccc23)cc1
inhibition [5]: 21.4% | inhibition [7]: 33%

CCOC(=O)CSc1cc(NS(=O)(=O)c2ccc(NC(C)=O)cc2)c2[nH]c3ccccc3c2c1
inhibition [5]: 21.8% | inhibition [7]: 35.8%

Cc1ccc(S(=O)(=O)Nc2cc(OCc3nnn[nH]3)cc3c2[nH]c2ccccc23)cc1
inhibition [5]: 45.1% | inhibition [7]: 46.8%

Cc1ccc(S(=O)(=O)Nc2cc(SCC(=O)O)c(O)c3c2[nH]c2ccccc23)cc1
IC50 [8]: > 100 µM | IC50 [9]: 26.3 µM | IC50 [10]: 14.7 µM | IC50 [11]: 12.8 µM | inhibition [5]: 35.6% | inhibition [7]: 43.7%

CC(=O)Nc1ccc(S(=O)(=O)Nc2cc(OCc3nnc(C)o3)cc3c2[nH]c2ccccc23)cc1
IC50 [8]: > 100 µM | IC50 [9]: > 100 µM | IC50 [10]: 43.7 µM | IC50 [11]: > 100 µM | inhibition [5]: 20.6% | inhibition [7]: 50.7%

N#CC(=C(/N)Sc1ccccc1N)/C(C#N)=C(\N)Sc1ccccc1N
IC50 [10]: 1.1 µM | IC50 [11]: 32.2 µM | inhibition [4]: 41.7% | inhibition [5]: 80.9% | inhibition [6]: 26.9% | inhibition [7]: 87.4%

Cc1ccc(S(=O)(=O)Nc2cc(OCc3nnc(C)o3)cc3c2[nH]c2ccccc23)cc1
inhibition [5]: 25.8% | inhibition [7]: 48.6%

— ChEMBL document CHEMBL4364288, “Discovery of carbazole derivatives as novel allosteric MEK inhibitors by pharmacophore modeling and virtual screening” (Eur J Med Chem, 2019)
